In patent publication US20250263376A1, “(E)-N-CINNAMOYLAMINOALKANOLS WITH MELANOGENESIS INHIBITORY ACTIVITY” (Uniwersytet Jagiellonski, priority 2024, published 2025):

Legend:
[1] = test system: human reconstructed epidermis model EpiDerm; assay: Extended skin irritation test in reconstructed human epidermis EpiDerm; assay type: cell-based
Method: Extended Skin Irritation Tests on Reconstructed Human Epidermis-Exposure Time Extended to 7 Days.
In order to perform extended skin irritation (safety) tests on the reconstructed human epidermis, the exposure time to the tested compounds was extended to 2 and 7 days in the human reconstructed epidermis model EpiDerm™ from MatTek. The epidermis was cultured according to the manufacturer's recommendations, using appropriate multi-well plates and culture media. Solutions of the tested compounds were applied to the epidermis using a positive displacement pipette and distributed using a sterile glass bulb headed Pasteur pipette. […] The epidermis was cultured in an incubator ensuring appropriate humidity, temperature (37° C.) and CO2 concentration (5%). The medium was replaced daily. After an appropriate incubation time, i.e. 2 days or 7 days, the epidermis was rinsed with sterile DPBS and incubated with MTT (Thiazolyl Blue Tetrazolium bromide) solution at 37° C. for 3 hours. After this time, a purple color of formazan was observed, correlated with tissue viability. […] Moreover, in the medium collected after the first 24 hours of EpiDerm epidermis culture, the level of interleukin 1α (Il-1α), which is a mediator of inflammation, was determined. Its level correlates with the unfavorable (irritating) effect of the tested substances on the epidermis. The level of IL-1α was determined using the Cayman Elisa test.

keratinocytes (HaCaT) = assay: Safety, MTT test in keratinocytes; assay type: cell-based; conditions: 48 hours
Method: (§1) In order to test the safety of the compounds, both normal human cells were used: keratinocytes (HaCaT), fibroblasts (BJ), primary melanocytes that occur in the skin, as well as human cancer cells: the hepatocarcinoma line HepG2 and the neuroblastoma line SH-SY5Y, which are considered a model for the assessment of hepatocytotoxicity and neurocytotoxicity. The concentrations of the tested compounds in the range of […] were used in the studies. The cell lines used in the research were purchased from the American Type Culture Collection (ATCC) and were cultured in media recommended by the manufacturer with the addition of FBS and antibiotics in an incubator ensuring appropriate culture conditions, i.e. humidity, temperature and CO2 concentration. Cells were seeded into multiwell plates and incubated with the test compounds for 48 hours. After this time, MTT and LDH tests were performed to assess cell viability. The MTT test is based on the ability to transform the substrate: [3-(4,5-dimethyl-2-thiazolyl)-2,5-diphenyl-2H-tetrazolium bromide into a colored product only by living cells. The absorbance at 570 nm, which corresponds to the absorption maximum for the product, is directly proportional to cell viability. The LDH test is based on testing the activity of the enzyme lactate dehydrogenase in the culture medium, which is released from cells as a result of damage to the cell membrane, e.g. as a result of cell death. Triton X-100 was used as a positive control in the test. The determination is colorimetric, the substrate is transformed by the released enzyme into a colored product, an increase in absorbance indicates a larger amount of the released enzyme, and thus confirms greater damage to cell membranes. Tables 7 and 8 present the results obtained, which correspond to the viability of cells incubated with the compounds in relation to the viability of cells constituting a control sample, i.e. incubated with the solvent (DMSO) at the same concentration as in the case of the groups tested in the MTT test or in relation to the results obtained for the Triton X-100 positive control in the LDH test. They indicate that the compounds are safe at the concentrations tested.

fibroblasts (BJ) [2] = assay: Safety, MTT test in fibroblasts; assay type: cell-based; conditions: 48 hours
Method: as §1

fibroblasts (BJ) [3] = assay: Safety, LDH test in fibroblasts; assay type: cell-based; conditions: 48 hours, vs Triton X-100
Method: as §1

primary melanocytes = assay: Safety, LDH test in primary melanocytes; assay type: cell-based; conditions: 48 hours, vs Triton X-100
Method: as §1

hepatocarcinoma HepG2 [4] = assay: Safety, MTT test in HepG2; assay type: cell-based; conditions: 48 hours
Method: as §1

hepatocarcinoma HepG2 [5] = assay: Safety, LDH test in HepG2; assay type: cell-based; conditions: 48 hours, vs Triton X-100
Method: as §1

neuroblastoma SH-SY5Y = assay: Safety, MTT test in SH-SY5Y; assay type: cell-based; conditions: 48 hours
Method: as §1

S. typhimurium TA98 = assay: Ames microplate test, TA98; assay type: cell-based, Salmonella typhimurium
Method: Bacteria were grown overnight in growth medium.

S. typhimurium TA100 = assay: Ames microplate test, TA100; assay type: cell-based, Salmonella typhimurium
S. typhimurium TA1535 = assay: Ames microplate test, TA1535;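 note: bacteria exposed 90 min at 37 °C in exposure medium, then 48 h in indicator medium in 384-well plates, yellow (revertant) wells counted per condition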
E. coli WP2 = assay: Ames microplate test, E. coli WP2;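 note: bacteria exposed to compound for 90 min at 37 °C in 24-well plates, then transferred with indicator medium to 384-well plates and incubated 48 h before yellow well counting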

## O=C(/C=C/c1ccc(Cl)cc1)NCCCCCO [Compound A-111, (2E)-3-(4-chlorophenyl)-N-(5-hydroxypentyl)prop-2-enamide]
[1]; 0.1% in 50% PEG (10 μL)
  Viability [% of control, mean ± SD] 2 days: 88.42 ± 1.25 % of control
  Viability [% of control, mean ± SD] 7 days: 107.77 ± 3.12 % of control
[1]; 0.5% in 50% PEG (10 μL)
  Viability [% of control, mean ± SD] 2 days: 92.02 ± 3.47 % of control
  Viability [% of control, mean ± SD] 7 days: 113.85 ± 4.03 % of control
[1]; 1.0% in 50% PEG (10 μL)
  Viability [% of control, mean ± SD] 2 days: 98.56 ± 11.78 % of control
  Viability [% of control, mean ± SD] 7 days: 100.41 ± 1.52 % of control
[1]; 1.0% in 50% PEG (10 μL), medium after first 24 hours
  Il-1α in culture medium: 15.89 ± .057 pg/mL
Keratinocytes (HaCaT); 100 μM
  MTT, Keratinocytes (HaCaT): 101.68 ± 3.45 % of solvent control
Keratinocytes (HaCaT); 150 μM
  MTT, Keratinocytes (HaCaT): 101.56 ± 1.94 % of solvent control
Keratinocytes (HaCaT); 200 μM
  MTT, Keratinocytes (HaCaT): 101.04 ± 2.77 % of solvent control
Keratinocytes (HaCaT); 250 μM
  MTT, Keratinocytes (HaCaT): 91.57 ± 2.10 % of solvent control
Fibroblasts (BJ) [2]; 100 μM
  MTT, Fibroblasts (BJ): 99.88 ± 5.25 % of solvent control
Fibroblasts (BJ) [2]; 150 μM
  MTT, Fibroblasts (BJ): 100.94 ± 3.37 % of solvent control
Fibroblasts (BJ) [2]; 200 μM
  MTT, Fibroblasts (BJ): 98.94 ± 4.04 % of solvent control
Fibroblasts (BJ) [2]; 250 μM
  MTT, Fibroblasts (BJ): 94.51 ± 5.03 % of solvent control
Fibroblasts (BJ) [3]; 100 μM
  LDH, Fibroblasts (BJ): 5.25 percentage of positive control
Fibroblasts (BJ) [3]; 150 μM
  LDH, Fibroblasts (BJ): 5.37 percentage of positive control
Fibroblasts (BJ) [3]; 200 μM
  LDH, Fibroblasts (BJ): 8.43 percentage of positive control
Fibroblasts (BJ) [3]; 250 μM
  LDH, Fibroblasts (BJ): 14.90 percentage of positive control
Primary melanocytes; 100 μM
  LDH, Primary melanocytes: 3.31 percentage of positive control
Primary melanocytes; 150 μM
  LDH, Primary melanocytes: 4.95 percentage of positive control
Primary melanocytes; 200 μM
  LDH, Primary melanocytes: 13.38 percentage of positive control
Primary melanocytes; 250 μM
  LDH, Primary melanocytes: 18.41 percentage of positive control
Hepatocarcinoma HepG2 [4]; 100 μM
  MTT, Hepatocarcinoma HepG2: 101.10 ± 6.01 % of solvent control
Hepatocarcinoma HepG2 [4]; 150 μM
  MTT, Hepatocarcinoma HepG2: 97.87 ± 3.27 % of solvent control
Hepatocarcinoma HepG2 [4]; 200 μM
  MTT, Hepatocarcinoma HepG2: 98.19 ± 3.27 % of solvent control
Hepatocarcinoma HepG2 [4]; 250 μM
  MTT, Hepatocarcinoma HepG2: 96.27 ± 2.57 % of solvent control
Hepatocarcinoma HepG2 [5]; 100 μM
  LDH, Hepatocarcinoma HepG2: 4.90 percentage of positive control
Hepatocarcinoma HepG2 [5]; 150 μM
  LDH, Hepatocarcinoma HepG2: 4.73 percentage of positive control
Hepatocarcinoma HepG2 [5]; 200 μM
  LDH, Hepatocarcinoma HepG2: 5.48 percentage of positive control
Hepatocarcinoma HepG2 [5]; 250 μM
  LDH, Hepatocarcinoma HepG2: 9.75 percentage of positive control
Neuroblastoma SH-SY5Y; 100 μM
  MTT, Neuroblastoma SH-SY5Y: 100.14 ± 3.22 % of solvent control
Neuroblastoma SH-SY5Y; 150 μM
  MTT, Neuroblastoma SH-SY5Y: 99.32 ± 3.36 % of solvent control
Neuroblastoma SH-SY5Y; 200 μM
  MTT, Neuroblastoma SH-SY5Y: 100.55 ± 2.31 % of solvent control
Neuroblastoma SH-SY5Y; 250 μM
  MTT, Neuroblastoma SH-SY5Y: 99.93 ± 4.36 % of solvent control
S. typhimurium TA98; 0.5 mM, + S9
  Increase in the number of yellow wells compared to the reference level, TA98: 1.50
S. typhimurium TA98; 0.5 mM, without S9
  Increase in the number of yellow wells compared to the reference level, TA98: 0.7
S. typhimurium TA98; 1.0 mM, + S9
  Increase in the number of yellow wells compared to the reference level, TA98: 0.83
S. typhimurium TA98; 1.0 mM, without S9
  Increase in the number of yellow wells compared to the reference level, TA98: 0.44
S. typhimurium TA98; 2.0 mM, + S9
  Increase in the number of yellow wells compared to the reference level, TA98: 1.50
S. typhimurium TA98; 2.0 mM, without S9
  Increase in the number of yellow wells compared to the reference level, TA98: 1.00
S. typhimurium TA100; 0.5 mM, + S9
  Increase in the number of yellow wells compared to the reference level, TA100: 0.97
S. typhimurium TA100; 0.5 mM, without S9
  Increase in the number of yellow wells compared to the reference level, TA100: 0.74
S. typhimurium TA100; 1.0 mM, + S9
  Increase in the number of yellow wells compared to the reference level, TA100: 0.47
S. typhimurium TA100; 1.0 mM, without S9
  Increase in the number of yellow wells compared to the reference level, TA100: 0.39
S. typhimurium TA100; 2.0 mM, + S9
  Increase in the number of yellow wells compared to the reference level, TA100: 0.67
S. typhimurium TA100; 2.0 mM, without S9
  Increase in the number of yellow wells compared to the reference level, TA100: 0.42
S. typhimurium TA1535; 0.5 mM, + S9
  Increase in the number of yellow wells compared to the reference level, TA1535: 0.58
S. typhimurium TA1535; 0.5 mM, without S9
  Increase in the number of yellow wells compared to the reference level, TA1535: 0.55
S. typhimurium TA1535; 1.0 mM, + S9
  Increase in the number of yellow wells compared to the reference level, TA1535: 0.35
S. typhimurium TA1535; 1.0 mM, without S9
  Increase in the number of yellow wells compared to the reference level, TA1535: 0.18
S. typhimurium TA1535; 2.0 mM, + S9
  Increase in the number of yellow wells compared to the reference level, TA1535: 0.23
S. typhimurium TA1535; 2.0 mM, without S9
  Increase in the number of yellow wells compared to the reference level, TA1535: 1.65
E. coli WP2; 0.5 mM, + S9
  Increase in the number of yellow wells compared to the reference level, E. coli WP2: 0.62
E. coli WP2; 0.5 mM, without S9
  Increase in the number of yellow wells compared to the reference level, E. coli WP2: 1.46
E. coli WP2; 1.0 mM, + S9
  Increase in the number of yellow wells compared to the reference level, E. coli WP2: 0.71
E. coli WP2; 1.0 mM, without S9
  Increase in the number of yellow wells compared to the reference level, E. coli WP2: 1.10
E. coli WP2; 2.0 mM, + S9
  Increase in the number of yellow wells compared to the reference level, E. coli WP2: 0.98
E. coli WP2; 2.0 mM, without S9
  Increase in the number of yellow wells compared to the reference level, E. coli WP2: 1.10
